# From patent US20250120967A1, “TYROSINE KINASES INHIBITORS AND USES THEREOF” (GREAT NOVEL THERAPEUTICS BIOTECH & MEDICALS CORPORATION, priority 2023, published 2025)
# Columns and labels:
# Experiment in all cases: NCI-60 screen (SRB)
# Assay type in all cases: cell-based
# BT-549 = details: Homo sapiens; BT-549, Breast Cancer
# Description: (§1) The human tumor cell lines of the cancer screening panel are grown in RPMI 1640 medium containing 5% fetal bovine serum and 2 mM L-glutamine. For a typical screening experiment, cells are inoculated into 96 well microtiter plates in 100 μL at plating densities ranging from 5,000 to 40,000 cells/well depending on the doubling time of individual cell lines. After cell inoculation, the microtiter plates are incubated at 37° C., 5% CO2, 95% air and 100% relative humidity for 24 h prior to addition of experimental drugs. After 24 h, two plates of each cell line are fixed in situ with TCA, to represent a measurement of the cell population for each cell line at the time of drug addition (Tz). Experimental drugs are solubilized in dimethyl sulfoxide at 400-fold the desired final maximum test concentration and stored frozen prior to use. At the time of drug addition, an aliquot of frozen concentrate is thawed and diluted to twice the desired final maximum test concentration with complete medium containing 50 µg/ml gentamicin. An additional four, 10-fold or M log serial dilutions are made to provide a total of five drug concentrations plus control. Aliquots of 100 μl of these different drug dilutions are added to the appropriate microtiter wells already containing 100 μl of medium, resulting in the required final drug concentrations. Following drug addition, the plates are incubated for an additional 48 h at 37° C., 5% CO2, 95% air, and 100% relative humidity. For adherent cells, the assay is terminated by the addition of cold TCA. Cells are fixed in situ by the gentle addition of 50 μl of cold 50% (w/v) TCA (final concentration, 10% TCA) and incubated for 60 minutes at 4° C. The supernatant is discarded, and the plates are washed five times with tap water and air dried. Sulforhodamine B (SRB) solution (100 l) at 0.4% (w/v) in 1% acetic acid is added to each well, and plates are incubated for 10 minutes at room temperature. After staining, unbound dye is removed by washing five times with 1% acetic acid and the plates are air dried. Bound stain is subsequently solubilized with 10 mM trizma base, and the absorbance is read on an automated plate reader at a wavelength of 515 nm. For suspension cells, the methodology is the same except that the assay is terminated by fixing settled cells at the bottom of the wells by gently adding 50 μl of 80% TCA (final concentration, 16% TCA).
# DU-145 = details: Homo sapiens; DU-145, Prostate Cancer
# Description: as §1
# SR = details: Homo sapiens, Leukemia
# Description: as §1
# OVCAR-8 = details: Homo sapiens; OVCAR-8, Ovarian Cancer
# Description: as §1
# SF-268 = details: Homo sapiens; SF-268, CNS Cancer
# Description: as §1
# K-562 = details: Homo sapiens, K562; K-562, Leukemia
# Description: as §1
# SK-MEL-5 = details: Homo sapiens; SK-MEL-5, Melanoma
# Description: as §1
# ACHN = details: Homo sapiens, Renal Cancer
# Description: as §1
# TK-10 = details: Homo sapiens; TK-10, Renal Cancer
# Description: as §1
# 786-0 = details: Homo sapiens; 786-0, Renal Cancer
# Description: as §1
# U251 = details: Homo sapiens, U-251; U251, CNS Cancer
# Description: as §1
# HT29 = details: Homo sapiens, HT-29; HT29, Colon Cancer
# Description: as §1
# PC-3 = details: Homo sapiens; PC-3, Prostate Cancer
# Description: as §1
# MDA-MB-435 = details: Homo sapiens; MDA-MB-435, Melanoma
# Description: as §1
# HL-60(TB) = details: Homo sapiens, Leukemia
# Description: as §1
# SW-620 = details: Homo sapiens; SW-620, Colon Cancer
# Description: as §1
# NCI/ADR-RES = details: Homo sapiens, Ovarian Cancer
# Description: as §1
# HOP-92 = details: Homo sapiens; HOP-92, Non-Small Cell Lung Cancer
# Description: as §1
# UACC-62 = details: Homo sapiens; UACC-62, Melanoma
# Description: as §1
# A549/ATCC = details: Homo sapiens, Non-Small Cell Lung Cancer
# Description: as §1
# MDA-MB-468 = details: Homo sapiens; MDA-MB-468, Breast Cancer
# Description: as §1
# LOX IMVI = details: Homo sapiens, Melanoma
# Description: as §1
# CCRF-CEM = details: Homo sapiens, Leukemia
# Description: as §1
# HOP-62 = details: Homo sapiens; HOP-62, Non-Small Cell Lung Cancer
# Description: as §1
# OVCAR-5 = details: Homo sapiens; OVCAR-5, Ovarian Cancer
# Description: as §1
# NCI-H522 = details: Homo sapiens; NCI-H522, Non-Small Cell Lung Cancer
# Description: as §1
# SK-MEL-2 = details: Homo sapiens; SK-MEL-2, Melanoma
# Description: as §1
# SN12C = details: Homo sapiens, Renal Cancer
# Description: as §1
# OVCAR-4 = details: Homo sapiens; OVCAR-4, Ovarian Cancer
# Description: as §1
Structure (SMILES),GI50 (BT-549) [nM],GI50 (DU-145) [nM],GI50 (SR) [nM],GI50 (OVCAR-8) [nM],GI50 (SF-268) [nM],GI50 (K-562) [nM],GI50 (SK-MEL-5) [nM],GI50 (ACHN) [nM],GI50 (TK-10) [nM],GI50 (786-0) [nM],GI50 (U251) [nM],GI50 (HT29) [nM],GI50 (PC-3) [nM],GI50 (MDA-MB-435) [nM],GI50 (HL-60(TB)) [nM],GI50 (SW-620) [nM],GI50 (NCI/ADR-RES) [nM],GI50 (HOP-92) [nM],GI50 (UACC-62) [nM],GI50 (A549/ATCC) [nM],also measured
"COc1cc2nccc(Oc3ccc(NC(=O)C4(NC(=O)c5ccc(F)cc5)CC4)cc3F)c2cc1OC [Cbo-02, N-(1-((4-((6,7-diMethoxyquinolin-4-yl)oxy)-3-fluorophenyl)carbamoyl)cyclopropyl)-4-fluorobenzamide]",1430,3360,3330,3030,4170,3050,4010,2140,1830,1980,2880,1820,3940,1890,2200,1630,4900,1260,1840,3270,GI50 (MDA-MB-468): 1720 nM; GI50 (LOX IMVI): 1990 nM; GI50 (CCRF-CEM): 2240 nM; GI50 (HOP-62): 1820 nM; GI50 (OVCAR-5): 1910 nM; GI50 (NCI-H522): 2070 nM; GI50 (SK-MEL-2): 6150 nM; GI50 (SN12C): 1210 nM; GI50 (OVCAR-4): 2380 nM
COc1cc2nccc(Oc3ccc(NC(=O)C4(NC(=O)c5ccc(F)cc5)CC4)cc3F)c2cc1Oc1ccc(N)cc1F [Cbo-10],2410,1700,345,> 100000,> 100000,1740,6970,683,455,> 100000,> 100000,413,> 100000,737,521,661,> 100000,141,915,483,GI50 (MDA-MB-468): 1730 nM; GI50 (LOX IMVI): 1780 nM; GI50 (CCRF-CEM): 436 nM; GI50 (HOP-62): 3480 nM; GI50 (OVCAR-5): 644 nM; GI50 (NCI-H522): 450 nM; GI50 (SK-MEL-2): > 100000 nM; GI50 (SN12C): 111 nM; GI50 (OVCAR-4): > 100000 nM
COc1cc2nccc(Oc3ccc(NC(=O)C4(C(=O)Nc5ccc(F)cc5)CC4)cc3F)c2cc1Oc1ccc(N)cc1F [Cbo-23],2270,429,93.8,2060,1350,130,1380,292,224,860,2380,2150,1600,363,596,449,2040,< 10,112,325,GI50 (MDA-MB-468): 1120 nM; GI50 (LOX IMVI): 306 nM; GI50 (CCRF-CEM): 553 nM; GI50 (HOP-62): 1200 nM; GI50 (OVCAR-5): 389 nM; GI50 (NCI-H522): 330 nM; GI50 (SK-MEL-2): 1360 nM; GI50 (SN12C): 199 nM; GI50 (OVCAR-4): 2580 nM
